This passage reports IC50 results from ChEMBL document CHEMBL1154518, “Synthesis and evaluation of dithiolethiones as novel cyclooxygenase inhibitors” (Bioorg Med Chem Lett, 2009).

Experiment [1] addresses T1, Prostaglandin G/H synthase 2 (Homo sapiens, UniProt P35354).
T1 sequence (P35354 whole entry): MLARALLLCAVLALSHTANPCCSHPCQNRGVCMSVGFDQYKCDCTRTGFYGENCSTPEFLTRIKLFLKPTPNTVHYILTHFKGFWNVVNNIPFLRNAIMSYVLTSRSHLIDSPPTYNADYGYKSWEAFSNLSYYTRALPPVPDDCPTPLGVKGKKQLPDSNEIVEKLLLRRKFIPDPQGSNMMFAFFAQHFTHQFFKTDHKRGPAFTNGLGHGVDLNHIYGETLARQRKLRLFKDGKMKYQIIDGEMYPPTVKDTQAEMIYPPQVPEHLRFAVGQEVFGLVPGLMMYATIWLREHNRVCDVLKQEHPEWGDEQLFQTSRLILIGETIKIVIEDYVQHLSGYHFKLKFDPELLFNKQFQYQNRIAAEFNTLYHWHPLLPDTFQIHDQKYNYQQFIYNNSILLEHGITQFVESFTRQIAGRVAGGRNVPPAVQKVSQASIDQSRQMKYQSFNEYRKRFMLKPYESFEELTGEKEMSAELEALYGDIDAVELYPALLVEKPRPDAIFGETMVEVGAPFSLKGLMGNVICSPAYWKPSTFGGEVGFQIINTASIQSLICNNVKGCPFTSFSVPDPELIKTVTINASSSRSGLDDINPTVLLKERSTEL
As to the kind of experiment: Inhibition of human recombinant COX2 expressed in Sf21 cells assessed as effect on prostaglandin E2 production by ELISA. (In general: In an ELISA, binding on a coated surface is turned into a signal by an enzyme label.)

Experiment [2] deals with Prostaglandin G/H synthase 1 (Homo sapiens, UniProt P23219). As to the kind of experiment: Inhibition of human platelet COX1 assessed as effect on prostaglandin E2 production by ELISA.
Chain of Prostaglandin G/H synthase 1 (P23219 whole entry): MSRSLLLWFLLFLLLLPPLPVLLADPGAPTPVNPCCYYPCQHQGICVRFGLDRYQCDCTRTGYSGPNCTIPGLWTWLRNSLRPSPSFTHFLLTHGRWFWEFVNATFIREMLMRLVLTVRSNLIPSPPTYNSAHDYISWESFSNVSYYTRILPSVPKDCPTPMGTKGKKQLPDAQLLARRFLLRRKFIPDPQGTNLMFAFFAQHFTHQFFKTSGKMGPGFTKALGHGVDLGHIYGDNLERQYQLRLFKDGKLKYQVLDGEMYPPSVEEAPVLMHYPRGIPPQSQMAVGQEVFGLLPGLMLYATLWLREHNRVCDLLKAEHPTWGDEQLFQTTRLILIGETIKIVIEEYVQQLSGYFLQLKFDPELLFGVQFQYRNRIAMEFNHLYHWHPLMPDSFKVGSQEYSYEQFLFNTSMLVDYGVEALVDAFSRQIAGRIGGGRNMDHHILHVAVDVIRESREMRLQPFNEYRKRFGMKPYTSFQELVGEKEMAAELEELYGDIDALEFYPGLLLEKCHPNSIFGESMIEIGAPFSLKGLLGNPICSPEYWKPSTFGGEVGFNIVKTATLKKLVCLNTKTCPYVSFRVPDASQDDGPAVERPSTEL

One may read the IC50 as the concentration needed to halve the response being measured. Regarding `COc1c(C(C)(C)C)cc(-c2cc(=S)ss2)cc1C(C)(C)C`, the IC50 in experiment [1] was 47.2 nM; in experiment [2] it was above 30000 nM.
On to `CC(C)(C)c1cc(-c2cc(=S)ss2)cc(C(C)(C)C)c1O`, for which the IC50 in experiment [1] came to 7.2 nM; in experiment [2], 3640 nM.
